From US11802129B1, “Pyrido[3,4-b]indol-1-one compounds as anticancer agents” (KING FAISAL UNIVERSITY, priority 2023, dated 2023)

Assays:
PC3 (prostate) = test: In vitro cytotoxic activity (MTT) assay, PC3; assay type: cell-based; conditions: Prostate cell; Human PC3 (prostate) cells, exposed for 96 hours
Method: (§1) Compounds 1-10 were screened for their in vitro cytotoxic activity utilizing a 3-(4,5-dimethyl-thiazol-2-yl)-2,5-diphenyltetrazolium bromide (MTT) assay against selected cancer murine and human cancer cell lines (T. Mosmann, J. Immunol. Meth., 1983, 65, 55-63). The cells were cultured at 37° C. in RMPI1640 medium supplemented with 10% fetal bovine serum, 50 IU/mL penicillin, and 50 μg/mL streptomycin in a 5% CO2 incubator. All cells were sub-cultured 3 times/week by trypsinisation. Viable cells were seeded and allowed to adhere for 12 h before a test drug was added in 96-well plates at an initial density of 1.0×10^5 cells/mL. Tumour cell lines were separately exposed to various concentrations of the tested compounds followed by incubation at a temperature of 37° C. during 4 days inside a medium of fresh RMPI 1640. Cells were subsequently incubated at 37° C. using MTT at 0.5 mg/mL during 4 h. After removal of supernatant, formazan crystals were dissolved in isopropanol and the optical density was measured at 570 nm. CX-4945 has been used as a positive control.

CK2 = biological target: T1, CK2 (Homo sapiens, UniProt P68400); test: In vitro CK2 inhibitory assay (CK2 assay kit); assay type: biochemical; conditions: CK2 assay kit (Upstate Biotechnology)
T1 construct: purchased Upstate Biotechnology, Lake Placid, NY, USA
T1 sequence (P68400 whole entry): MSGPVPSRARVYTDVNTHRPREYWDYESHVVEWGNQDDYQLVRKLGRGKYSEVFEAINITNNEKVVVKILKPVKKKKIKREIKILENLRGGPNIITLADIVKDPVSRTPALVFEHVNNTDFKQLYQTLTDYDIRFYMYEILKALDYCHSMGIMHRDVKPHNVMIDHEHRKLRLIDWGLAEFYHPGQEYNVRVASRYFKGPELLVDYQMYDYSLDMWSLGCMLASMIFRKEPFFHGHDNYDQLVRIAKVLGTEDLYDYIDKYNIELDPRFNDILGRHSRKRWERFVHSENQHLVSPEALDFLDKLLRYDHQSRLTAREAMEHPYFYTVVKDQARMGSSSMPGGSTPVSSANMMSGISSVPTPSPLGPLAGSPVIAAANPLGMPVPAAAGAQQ
Method: CK2 activity was assessed by using a CK2 assay kit (Upstate Biotechnology, Lake Placid, NY, USA) according to the manufacturer's instructions [T. Tiganis, C. M. House, B. E. Kemp, Arch. Biochem. Biophys. 1996,325, 289-294].

H1299 (lung) = test: In vitro cytotoxic activity (MTT) assay, H1299; assay type: cell-based; conditions: NCI-H1299; Human H1299 (lung) cells, exposed for 96 hours
Method: as §1

Leukemia P388 = test: In vitro cytotoxic activity (MTT) assay, Leukemia P388; assay type: cell-based; conditions: Mus musculus; Murine Leukemia P388 cells, exposed for 96 hours
Method: as §1

MCF7 (breast) = test: In vitro cytotoxic activity (MTT) assay, MCF7; assay type: cell-based; conditions: Human MCF7 (breast) cells, exposed for 96 hours
Method: as §1

HCT116 (colon) = test: In vitro cytotoxic activity (MTT) assay, HCT116; assay type: cell-based; conditions: HCT-116; Human HCT116 (colon) cells, exposed for 96 hours
Method: as §1

B16 melanoma = test: In vitro cytotoxic activity (MTT) assay, B16 melanoma; assay type: cell-based; conditions: Mus musculus; Murine B16 melanoma cells, exposed for 96 hours
Method: as §1

A375 (melanoma) = test: In vitro cytotoxic activity (MTT) assay, A375; assay type: cell-based; conditions: A-375; Human A375 (melanoma) cells, exposed for 96 hours
Method: as §1

MIAPaCa-2 (pancreas) = test: In vitro cytotoxic activity (MTT) assay, MIAPaCa-2; assay type: cell-based; conditions: MIA PaCa-2; Human MIAPaCa-2 (pancreas) cells, exposed for 96 hours
Method: as §1

Colon C38 adenocarcinoma = test: In vitro cytotoxic activity (MTT) assay, Colon C38 adenocarcinoma; assay type: cell-based; conditions: Mus musculus; Murine Colon C38 adenocarcinoma cells, exposed for 96 hours
Method: as §1

HL60 (leukemia) = test: In vitro cytotoxic activity (MTT) assay, HL60; assay type: cell-based; conditions: HL-60; Human HL60 (leukemia) cells, exposed for 96 hours
Method: as §1

MDA-MB-231 (breast) = test: In vitro cytotoxic activity (MTT) assay, MDA-MB-231; assay type: cell-based; conditions: Human MDA-MB-231 (breast) cells, exposed for 96 hours
Method: as §1

SMILES: O=C(O)c1ccc2[nH]c3c(=O)[nH]cc(Nc4cccc(Cl)c4)c3c2c1 [Example 3, 4-((3-chlorophenyl)amino)-1-oxo-2,9-dihydro-1H-pyrido[3,4-b]indole-6-carboxylic acid]
- IC50 (PC3 (prostate)): 2.6 µM
- IC50 (CK2): 0.005 µM
- IC50 (H1299 (lung)): 2.1 µM
- IC50 (Leukemia P388): 5.5 µM
- IC50 (MCF7 (breast)): 7.5 µM
- IC50 (HCT116 (colon)): 3.3 µM
- IC50 (B16 melanoma): 6.8 µM
- IC50 (A375 (melanoma)): 4.4 µM
- IC50 (MIAPaCa-2 (pancreas)): 5.7 µM
- IC50 (Colon C38 adenocarcinoma): 4.4 µM
- IC50 (HL60 (leukemia)): 6.3 µM
- IC50 (MDA-MB-231 (breast)): 6.6 µM
